Values quoted from earlier work in patent US20250082604A1, “COMPOSITIONS CONTAINING A HIGH CONTENT OF PROANTHOCYANIDINS AND METHODS OF PREPARATION AND USE THEREOF” (priority 2022, published 2025).

Tested on: human HepG2 cells
Details: literature data (dx.doi.org/10.3390/antiox9060471)

| SMILES | AOP1 EC50, data from the literature |
| --- | --- |
| COc1ccc(O)c(C(C)(C)C)c1 [BHA] | 31.54 µg/mL |
| Cc1cc(C(C)(C)C)c(O)c(C(C)(C)C)c1 [BHT] | 34.25 µg/mL |
| Cc1c(C)c2c(c(C)c1O)CCC(C)(C(=O)O)O2 (stereo not shown) [Trolox] | 138.50 µg/mL |
| Oc1ccc(C=Cc2cc(O)cc(O)c2)cc1 [resveratrol] | 64.66 µg/mL |
